From ChEMBL document CHEMBL2074093, “The predominant contribution of oligopeptide transporter PepT1 to intestinal absorption of beta-lactam antibiotics in the rat small intestine” (J Pharm Pharmacol, 1997)

Biological target: T1, Solute carrier family 15 member 1 (Rattus norvegicus) (UniProt P51574)
T1 sequence (whole entry): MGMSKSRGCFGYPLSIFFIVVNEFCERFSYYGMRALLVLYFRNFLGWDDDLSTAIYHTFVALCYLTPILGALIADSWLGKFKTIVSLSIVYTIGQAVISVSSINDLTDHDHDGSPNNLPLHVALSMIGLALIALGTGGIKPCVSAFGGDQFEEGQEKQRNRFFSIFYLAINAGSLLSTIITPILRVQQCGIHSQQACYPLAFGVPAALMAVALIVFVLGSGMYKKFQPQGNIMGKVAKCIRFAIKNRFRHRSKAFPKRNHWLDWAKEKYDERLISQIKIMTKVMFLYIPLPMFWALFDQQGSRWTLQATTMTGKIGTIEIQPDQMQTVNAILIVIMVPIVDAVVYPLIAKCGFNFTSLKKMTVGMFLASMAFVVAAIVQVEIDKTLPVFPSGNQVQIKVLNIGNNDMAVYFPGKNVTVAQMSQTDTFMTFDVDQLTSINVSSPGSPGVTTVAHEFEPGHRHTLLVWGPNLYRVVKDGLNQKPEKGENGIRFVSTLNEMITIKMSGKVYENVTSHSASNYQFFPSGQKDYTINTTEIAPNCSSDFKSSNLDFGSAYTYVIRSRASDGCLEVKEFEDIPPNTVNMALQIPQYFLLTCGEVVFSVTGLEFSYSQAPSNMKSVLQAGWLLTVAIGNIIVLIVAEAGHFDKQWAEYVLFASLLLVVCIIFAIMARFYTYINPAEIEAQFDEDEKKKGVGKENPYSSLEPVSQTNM
Experiment: TP_TRANSPORTER: uptake in Xenopus laevis oocytes
Format: functional, cell-based
Conditions: Oocyte; call rule not given here

Activity, active:
CC1=C(C(=O)O)N2C(=O)[C@@H](NC(=O)[C@H](N)c3ccccc3)[C@H]2SC1 substrate [+], CC1=C(C(=O)O)N2C(=O)[C@@H](NC(=O)[C@H](N)c3ccc(O)cc3)[C@H]2SC1 substrate [+], C=CC1=C(C(=O)O)N2C(=O)[C@@H](NC(=O)/C(=N\OCC(=O)O)c3csc(N)n3)[C@H]2SC1 substrate [+]
